How the values were obtained:
[1] = test system: HepG2 cells; alpha 1-antichymotrypsin synthesis; test: alpha1-antichymotrypsin; format: cell-based, human; conditions: HepG2, 6 h, 37°C
[2] = test system: HepG2 cells; alpha 1-antichymotrypsin synthesis; conditions: lower doses of IL-6; cited from earlier work
HepG2 cells = conditions: cell lines such as HepG2; cited from earlier work
[3] = test system: HepG2 cells; complement C3 synthesis; test: C3 synthesis in HepG2 cells; format: cell-based, human; conditions: for time at which increase in C3 synthesis becomes evident: C5a or FMLP 10 nM, HepG2, 37°C, Fig. 6; for effect on C3 synthesis: HepG2, 6 h, 37°C, 1 and 10 nM, Fig. 7
[4] = test system: HepG2 cells; albumin synthesis; test: Albumin synthesis in HepG2 cells; format: cell-based, human; conditions: for time at which decrease in albumin synthesis becomes evident: C5a or FMLP 10 nM, Fig. 6
[5] = test system: HepG2 cells; complement Bf synthesis; test: Complement Bf synthesis in HepG2 cells; format: cell-based, human; conditions: HepG2, 6 h, 37°C; 1 and 10 nM; Fig. 7
[6] = test system: HepG2 cells; transferrin synthesis; test: Transferrin synthesis in HepG2 cells; format: cell-based, human; conditions: HepG2, 6 h, 37°C; 1 and 10 nM; Fig. 7
[7] = test system: HepG2 cells; alpha1-AT synthesis; test: alpha1-antitrypsin; format: cell-based, human; conditions: HepG2, 6 h, 37°C; 1 and 10 nM; Fig. 7
[8] = test system: HepG2 cells; C5 synthesis; test: C5 synthesis in HepG2 cells; format: cell-based, human; conditions: HepG2, 6 h, 37°C; 1 and 10 nM; Fig. 7
[9] = test system: HepG2 cells; fibrinogen and C4 synthesis; test: Fibrinogen and C4 synthesis in HepG2 cells; format: cell-based, human; conditions: data not shown
[10] = test system: HepG2 cells; serum amyloid A or C-reactive protein synthesis; test: Serum amyloid A and C-reactive protein synthesis in HepG2 cells; format: cell-based, human; conditions: data not shown
[11] = test system: HepG2 cells; acute phase protein synthesis; test: Synthesis of acute phase proteins in HepG2 cells; format: cell-based, human; conditions: for effect on C3 and albumin synthesis at higher concentrations: higher concentrations of chemotactic peptides, data not shown
neutrophils = conditions: cited from earlier work
FMLPR in HepG2 cells = molecular target: T1, FMLPR in HepG2 cells (Homo sapiens, UniProt P21462); test: Binding of radioiodinated FMLP analogue to HepG2 cells
T1 sequence (P21462 1-350): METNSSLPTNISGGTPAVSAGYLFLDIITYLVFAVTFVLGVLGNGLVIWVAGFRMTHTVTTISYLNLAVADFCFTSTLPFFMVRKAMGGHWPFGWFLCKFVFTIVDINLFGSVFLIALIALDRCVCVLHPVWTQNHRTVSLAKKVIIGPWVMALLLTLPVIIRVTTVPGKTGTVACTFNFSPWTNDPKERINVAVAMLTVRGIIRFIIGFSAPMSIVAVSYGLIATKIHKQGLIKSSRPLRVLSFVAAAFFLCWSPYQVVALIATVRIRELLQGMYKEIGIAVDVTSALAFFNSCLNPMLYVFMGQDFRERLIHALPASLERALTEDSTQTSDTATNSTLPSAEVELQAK

[12] = test system: C5a and FMLP receptor-activated signal transduction pathways; conditions: background statement, no reference given; cited from earlier work
[13] = test system: vascular tissue, smooth muscle, mast cells; conditions: cited from earlier work
human endothelial cells = conditions: cited from earlier work
C5aR in HepG2 cells = conditions: cited from earlier work
[14] = HepG2, 10 h, IL-1β 10 ng/ml + IL-6 10 ng/ml as positive control, Fig. 5
[15] = HepG2, 37°C, 10 h, serum-free, C5a or FMLP 1 and 10 nM, Fig. 5
[16] = HepG2, 6 h, 37°C, 1 and 10 nM, Fig. 7

In the case of “IL-6: prototype acute phase cytokine IL-6”, the “concentration of maximal effect on alpha1-ACT synthesis” value ([1]; Fig. 9 right) is given as 0.2 /xg/ml, the “effect on alpha1-ACT synthesis” value ([1]; IL-6, several concentrations from 0.2 μg/ml, Fig. 9 right) is given as “increase” and the “effect on alpha1-ACT synthesis at lower doses” value [2] is given as “con- centration dependent at lower doses”. For the same molecule, the “changes in expression of acute phase genes” value (“changes in expression” for short) (HepG2 cells) was “changes in expression of at least several if not many acute phase genes”.

For “IL-I~: cytokine (interleukin-1 beta; scan error)”, the “changes in expression” value (HepG2 cells) is listed as “changes in expression of at least several if not many acute phase genes”.

With “formyl-methionyl-leucyl-phenylalanine [FMLP, reference compound]” the “time at which increase in C3 synthesis becomes evident” value [3] was 6 h, the “effect on C3 synthesis” value [3] was “increases” and the “magnitude of effect on C3 synthesis vs combined effect of IL-1β and IL-6” value [3, 14] was “less than but comparable in magnitude”. For the same molecule, the “time at which decrease in albumin synthesis becomes evident” value ([4]; HepG2, 37°C) was 6 h, the “effect on albumin synthesis” value [4, 15] was “concentration-dependent decreases in synthesis of albumin” and the “effect on albumin synthesis” value [4, 16] was “decreases”. The “concentration at which effect on albumin biosynthesis was first evident” value ([4]; HepG2, 10 h, Fig. 5) was 1 nM, the “magnitude of effect on albumin synthesis vs combination of IL-1β and IL-6” value [4, 14] was “less than but comparable” and the “effect on complement Bf synthesis” value [5] was “increases”. The “alpha1-ACT synthesis at higher (supersaturating) concentrations” value ([1]; FMLP above 20 nM, Fig. 9 left) was “returns to control levels”, the “effect on alpha1-ACT synthesis” value ([1]; 1 and 10 nM, Fig. 7) was “increases” and the “effect on transferrin synthesis” value [6] was “decreases”. The “effect on alpha1-AT synthesis” value [7] was “no effect”, the “effect on C5 synthesis” value [8] was “no effect” and the “effect on fibrinogen and C4 synthesis” value [9] was “minimally and inconsistently increased”. For the same molecule, the “induction of serum amyloid A or C-reactive protein synthesis” value [10] was “no evidence for induc- tion”, the “lowest concentration with evident effect on synthesis of acute phase proteins” value ([11]; abstract) was 1 nM and the “effect on C3 and albumin synthesis at higher concentrations” value [11] was “dissipation of the effect”. The “effect on neutrophil chemotaxis at supersaturating concentrations” value (neutrophils) was “abrogated at supersaturating concentra- tions” and the neutrophil program activated (neutrophils) was “directed cell migration, release of active oxy- gen intermediates, and release of proteolytic and phlogistic granular contents”.

With “formylNLe-Leu-Phe-NLe-Tyr-Lys [radioiodinated FMLP analogue]” the “binding of radioiodinated FMLP analogue to HepG2 cells” value (FMLPR in HepG2 cells; HepG2, 2 h at 4°C, Fig. 3A) was “specific and saturable binding”, the “plasma membrane receptors per cell (R)” value (FMLPR in HepG2 cells; Scatchard plot, HepG2, 2 h at 4°C) was ~6,000 plasma membrane receptors per cell and the Kd (FMLPR in HepG2 cells; Scatchard plot, HepG2 monolayers, 2 h at 4°C, DMEM, 10 mM Hepes, pH 7.2, 1 mg/ml BSA, 0.05% Tween 80, nonspecific: 200-fold (Fig. 3: 250-fold) molar excess unlabeled FMLP, gamma counting) was roughly 2.47 nM.

For leukemia inhibitory factor: cytokine, the “changes in expression” value (HepG2 cells) is listed as “changes in expression of at least several if not many acute phase genes”.

In the case of pertussis toxin, the “inhibition of C5a/FMLP receptor signal transduction” value [12] is given as “is inhibited by pertussis toxin”.

B1: IL-11: cytokine (protein, UniProt P20809 22-199, looked up)
Interleukin-11: PGPPPGPPRVSPDPRAELDSTVLLTRSLLADTRQLAAQLRDKFPADGDHNLDSLPTLAMSAGALGALQLPGVLTRLRADLLSYLRHVQWLRRAGGSSLKTLEPELGTLQARLDRLLRRLQLLMSRLALPQPPPDPPAPPLAPPSSAWGGIRAAHAILGGLHLTLDWAVRGLLLLKTRL
For B1, the “changes in expression” value (HepG2 cells) is given as “changes in expression of at least several if not many acute phase genes”.

B2: IL-lc~: cytokine (interleukin-1 alpha; scan error) (protein, UniProt P01583 113-271, looked up)
Interleukin-1 alpha: SAPFSFLSNVKYNFMRIIKYEFILNDALNQSIIRANDQYLTAAALHNLDEAVKFDMGAYKSSKDDAKITVILRISKTQLYVTAQDEDQPVLLKEMPEIPKTITGSETNLLFFWETHGTKNYFTSVAHPNLFIATKQDYWVCLAGGPPSITDFQILENQA
In the case of B2, the “changes in expression” value (HepG2 cells) is listed as “changes in expression of at least several if not many acute phase genes”.

B3: oncostain M: cytokine (protein, UniProt P13725 26-221, looked up)
Oncostatin-M: AAIGSCSKEYRVLLGQLQKQTDLMQDTSRLLDPYIRIQGLDVPKLREHCRERPGAFPSEETLRGLGRRGFLQTLNATLGCVLHRLADLEQRLPKAQDLERSGLNIEDLEKLQMARPNILGLRNNIYCMAQLLDNSDTAEPTKAGRGASQPPTPTPASDAFQRKLEGCRFLHGYHRFMHSVGRVFSKWGESPNRSRR
In the case of B3, the “changes in expression” value (HepG2 cells) is listed as “changes in expression of at least several if not many acute phase genes”.

B4: C5a: 11,200-D cationic glycopeptide from the first 74 residues of the C5 alpha chain; recombinant human C5a (Sigma) used (protein, UniProt P01031 678-751, looked up)
C5a anaphylatoxin: TLQKKIEEIAAKYKHSVVKKCCYDGACVNNDETCEQRAARISLGPRCIKAFTECCVVASQLRANISHKDMQLGR
modifications: C5a anaphylatoxin
In the case of B4, the “time at which increase in C3 synthesis becomes evident” value [3] is reported as 6 h, the “effect on C3 synthesis” value [3] is reported as “increases” and the “time at which decrease in albumin synthesis becomes evident” value ([4]; HepG2, 37°C) is reported as 6 h. For the same molecule, the “effect on albumin synthesis” value [4, 15] was “concentration-dependent decreases in synthesis of albumin”, the “effect on albumin synthesis” value [4, 16] was “decreases” and the “effect on complement Bf synthesis” value [5] was “increases”. For the same molecule, the “effect on alpha1-ACT synthesis” value ([1]; 1 and 10 nM, Fig. 7) was “increases”, the “effect on transferrin synthesis” value [6] was “decreases” and the “effect on alpha1-AT synthesis” value [7] was “no effect”. The “effect on C5 synthesis” value [8] was “no effect”, the “effect on fibrinogen and C4 synthesis” value [9] was “minimally and inconsistently increased” and the “induction of serum amyloid A or C-reactive protein synthesis” value [10] was “no evidence for induc- tion”. For the same molecule, the “effect on C3 and albumin synthesis at higher concentrations” value [11] was “dissipation of the effect”, the “effect on neutrophil chemotaxis at supersaturating concentrations” value (neutrophils) was “abrogated at supersaturating concentra- tions” and the neutrophil activities mediated (neutrophils) was “chemotactic ac- tivity, phagocytic activity, release of active oxygen inter- mediates, release of granular enzymes, and increase in adhesion/aggregationproperties in neutrophils”. The “histamine release from mast cells” value [13] was “releaseofhistamine from mast cells”, the smooth muscle contraction [13] was “smooth muscle contraction” and the vascular permeability [13] was “increasedvascularpermeability”. The vasodilatation [13] was “vasodilatation”, the “binding to human endothelial cells” value (human endothelial cells) was “binds to human endothelial cells” and the “inhibition of binding of 125I-C5a to HepG2 cells” value (C5aR in HepG2 cells) was “inhibit binding”.

From article PMC2192098 (The Journal of Experimental Medicine, 1995)
